According to patent US20080200454A1, “CARBON-LINKED TETRAHYDRO-PYRAZOLO-PYRIDINE MODULATORS OF CATHEPSIN S” (priority 2007, published 2008):
Like-named read-outs stand apart in the source and are kept apart here.

Biological target: Recombinant human cathepsin S (CatS) (Homo sapiens, UniProt P25774)
Assay: Recombinant human cathepsin S (CatS) inhibition assay, fluorogenic substrate Z-Valine-Valine-Arginine-AMC;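 further: Baculovirus-expressed CatS in pH 5.0 sodium acetate buffer with DTT and NaCl, fluorescence read each minute over 20 min, inhibition derived from rate slope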

Recombinant human cathepsin S (CatS), sequence (P25774 115-331): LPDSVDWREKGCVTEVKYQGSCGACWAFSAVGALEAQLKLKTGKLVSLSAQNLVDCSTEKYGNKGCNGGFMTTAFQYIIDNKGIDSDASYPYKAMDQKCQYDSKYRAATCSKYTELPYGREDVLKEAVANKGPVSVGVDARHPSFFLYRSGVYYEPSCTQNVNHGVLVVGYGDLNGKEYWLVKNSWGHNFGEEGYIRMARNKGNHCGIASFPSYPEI

SMILES | IC50 (CatS IC50) [nM] | IC50 [nM]
C[C@H]1COCCN1CCCn1nc(-c2ccc(Cl)c(C#Cc3ccc4c(c3)CN(C)CC4)c2)c2c1CCN(S(C)(=O)=O)C2 [Example 281, 7-({2-Chloro-5-[1-{3-[(3S)-3-methylmorpholin-4-yl]propyl}-5-(methylsulfonyl)-4,5,6,7-tetrahydro-1H-pyrazolo[4,3-c]pyridin-3-yl]phenyl}ethynyl)-2-methyl-1,2,3,4-tetrahydroisoquinoline] | 120 | 
C[C@H]1COCCN1CCCn1nc(-c2ccc(Cl)c(C#Cc3ccc4c(c3)CN(C3CC3)CC4)c2)c2c1CCN(C(N)=O)C2 [Example 282, 3-{4-Chloro-3-[(2-cyclopropyl-1,2,3,4-tetrahydroisoquinolin-7-yl)ethynyl]phenyl}-1-{3-[(3S)-3-methylmorpholin-4-yl]propyl}-1,4,6,7-tetrahydro-5H-pyrazolo[4,3-c]pyridine-5-carboxamide] |  | 150
C[C@H]1COCCN1CCCn1nc(-c2ccc(Cl)c(C#Cc3ccc4c(c3)CN(C3CC3)CC4)c2)c2c1CCN(C(=O)C(N)=O)C2 [Example 283, 2-(3-{4-Chloro-3-[(2-cyclopropyl-1,2,3,4-tetrahydroisoquinolin-7-yl)ethynyl]phenyl}-1-{3-[(3S)-3-methylmorpholin-4-yl]propyl}-1,4,6,7-tetrahydro-5H-pyrazolo[4,3-c]pyridin-5-yl)-2-oxoacetamide] | 100 | 
CS(=O)(=O)N1CCc2c(c(-c3ccc(Cl)c(C#Cc4ccc5c(c4)CCN(C4CC4)C5)c3)nn2CCCN2CCOCC2)C1 [Example 284, 6-({2-Chloro-5-[5-(methylsulfonyl)-1-(3-morpholin-4-ylpropyl)-4,5,6,7-tetrahydro-1H-pyrazolo[4,3-c]pyridin-3-yl]phenyl}ethynyl)-2-cyclopropyl-1,2,3,4-tetrahydroisoquinoline] | 200 | 
C[C@H]1COCCN1CCCn1nc(-c2ccc(Cl)c(C#Cc3ccc(Cl)c(CNCc4ccccc4)c3)c2)c2c1CCN(C(=O)C(N)=O)C2 [Example 285, 2-(3-{4-Chloro-3-[(4-chloro-3-{[(phenylmethyl)amino]methyl}phenyl)ethynyl]phenyl}-1-{3-[(3S)-3-methylmorpholin-4-yl]propyl}-1,4,6,7-tetrahydro-5H-pyrazolo[4,3-c]pyridin-5-yl)-2-oxoacetamide] |  | 20
C[C@H]1COCCN1CCCn1nc(-c2ccc(Cl)c(C#Cc3ccc(Cl)c(CNCc4ccccc4)c3)c2)c2c1CCN(S(C)(=O)=O)C2 [Example 286, 1-[2-Chloro-5-({2-chloro-5-[1-{3-[(3S)-3-methylmorpholin-4-yl]propyl}-5-(methylsulfonyl)-4,5,6,7-tetrahydro-1H-pyrazolo[4,3-c]pyridin-3-yl]phenyl}ethynyl)phenyl]-N-(phenylmethyl)methanamine] | 30 | 
CS(=O)(=O)N1CCc2c(c(-c3ccc(Cl)c(C#Cc4ccc(Cl)c(CNCc5ccccc5)c4)c3)nn2CCCN2CCOCC2)C1 [Example 287, 1-[2-Chloro-5-({2-chloro-5-[5-(methylsulfonyl)-1-(3-morpholin-4-ylpropyl)-4,5,6,7-tetrahydro-1H-pyrazolo[4,3-c]pyridin-3-yl]phenyl}ethynyl)phenyl]-N-(phenylmethyl)methanamine] | 50 | 
CS(=O)(=O)N1CCc2c(c(-c3ccc(Cl)c(CCc4ccc(Cl)c(CNCc5ccccc5)c4)c3)nn2CCCN2CCOCC2)C1 [Example 288, 1-[2-Chloro-5-(2-{2-chloro-5-[5-(methylsulfonyl)-1-(3-morpholin-4-ylpropyl)-4,5,6,7-tetrahydro-1H-pyrazolo[4,3-c]pyridin-3-yl]phenyl}ethyl)phenyl]-N-(phenylmethyl)methanamine] |  | 120
C[C@H]1COCCN1CCCn1nc(-c2ccc(Cl)c(C#Cc3ccc(Cl)c(CNCc4ccccn4)c3)c2)c2c1CCN(C(=O)C(N)=O)C2 [Example 289, 2-(3-{4-Chloro-3-[(4-chloro-3-{[(pyridin-2-ylmethyl)amino]methyl}phenyl)ethynyl]phenyl}-1-{3-[(3S)-3-methylmorpholin-4-yl]propyl}-1,4,6,7-tetrahydro-5H-pyrazolo[4,3-c]pyridin-5-yl)-2-oxoacetamide] | 10 | 
CS(=O)(=O)N1CCc2c(c(-c3ccc(Cl)c(C#Cc4ccc(F)c(CNCc5ccccc5)c4)c3)nn2CCCN2CCOCC2)C1 [Example 290, 1-[5-({2-Chloro-5-[5-(methylsulfonyl)-1-(3-morpholin-4-ylpropyl)-4,5,6,7-tetrahydro-1H-pyrazolo[4,3-c]pyridin-3-yl]phenyl}ethynyl)-2-fluorophenyl]-N-(phenylmethyl)methanamine] | 210 | 
NC(=O)N1CCc2c(c(-c3ccc(Cl)c(C#Cc4ccc(Cl)c(CNCc5ccccc5)c4)c3)nn2CCCN2CCSCC2)C1 [Example 291, 3-{4-Chloro-3-[(4-chloro-3-{[(phenylmethyl)amino]methyl}phenyl)ethynyl]phenyl}-1-(3-thiomorpholin-4-ylpropyl)-1,4,6,7-tetrahydro-5H-pyrazolo[4,3-c]pyridine-5-carboxamide] |  | 30
NC(=O)N1CCc2c(c(-c3ccc(Cl)c(C#Cc4ccc(Cl)c(CNCc5ccccn5)c4)c3)nn2CCCN2CCSCC2)C1 [Example 292, 3-{4-Chloro-3-[(4-chloro-3-{[(pyridin-2-ylmethyl)amino]methyl}phenyl)ethynyl]phenyl}-1-(3-thiomorpholin-4-ylpropyl)-1,4,6,7-tetrahydro-5H-pyrazolo[4,3-c]pyridine-5-carboxamide] | 20 | 
C[C@H]1COCCN1CCCn1nc(-c2ccc(Cl)c(C#Cc3ccc(Cl)c(CNCCO)c3)c2)c2c1CCN(S(C)(=O)=O)C2 [Example 293, 2-({[2-Chloro-5-({2-chloro-5-[1-{3-[(3S)-3-methylmorpholin-4-yl]propyl}-5-(methylsulfonyl)-4,5,6,7-tetrahydro-1H-pyrazolo[4,3-c]pyridin-3-yl]phenyl}ethynyl)phenyl]methyl}amino)ethanol] | 50 | 
COC(=O)CNCc1cc(C#Cc2cc(-c3nn(CCCN4CCOC[C@@H]4C)c4c3CN(C(=O)C(N)=O)CC4)ccc2Cl)ccc1Cl [Example 294, Methyl N-[(5-{[5-(5-[amino(oxo)acetyl]-1-{3-[(3S)-3-methylmorpholin-4-yl]propyl}-4,5,6,7-tetrahydro-1H-pyrazolo[4,3-c]pyridin-3-yl)-2-chlorophenyl]ethynyl}-2-chlorophenyl)methyl]glycinate] |  | 20
C[C@H]1COCCN1CCCn1nc(-c2ccc(Cl)c(C#Cc3ccc(Cl)c(CNCCO)c3)c2)c2c1CCN(C(=O)C(N)=O)C2 [Example 295, 2-(3-{4-Chloro-3-[(4-chloro-3-{[(2-hydroxyethyl)amino]methyl}phenyl)ethynyl]phenyl}-1-{3-[(3S)-3-methylmorpholin-4-yl]propyl}-1,4,6,7-tetrahydro-5H-pyrazolo[4,3-c]pyridin-5-yl)-2-oxoacetamide] |  | 30
CS(=O)(=O)N1CCc2c(c(-c3cccc(CCc4cccc(O)c4)c3)nn2CCCN2CCOCC2)C1 [Example 296, 3-(2-{3-[5-(Methylsulfonyl)-1-(3-morpholin-4-ylpropyl)-4,5,6,7-tetrahydro-1H-pyrazolo[4,3-c]pyridin-3-yl]phenyl}ethyl)phenol] |  | 15500
Clc1ccc(C#Cc2cc(-c3nn(CCCN4CCOCC4)c4c3CNCC4)ccc2Cl)cc1 [Example 297, 3-{4-Chloro-3-[(4-chlorophenyl)ethynyl]phenyl}-1-(3-morpholin-4-ylpropyl)-4,5,6,7-tetrahydro-1H-pyrazolo[4,3-c]pyridine] |  | 1600
